Paper PMC3965624 (Life sciences, 2014)

Target: NTSR1 (Homo sapiens, UniProt P30989)
Assay: […]-Tyr3-NTS radioligand displacement on intact NCI-H1299 cells
Type: cell-based

Sequence of NTSR1 (P30989 whole entry): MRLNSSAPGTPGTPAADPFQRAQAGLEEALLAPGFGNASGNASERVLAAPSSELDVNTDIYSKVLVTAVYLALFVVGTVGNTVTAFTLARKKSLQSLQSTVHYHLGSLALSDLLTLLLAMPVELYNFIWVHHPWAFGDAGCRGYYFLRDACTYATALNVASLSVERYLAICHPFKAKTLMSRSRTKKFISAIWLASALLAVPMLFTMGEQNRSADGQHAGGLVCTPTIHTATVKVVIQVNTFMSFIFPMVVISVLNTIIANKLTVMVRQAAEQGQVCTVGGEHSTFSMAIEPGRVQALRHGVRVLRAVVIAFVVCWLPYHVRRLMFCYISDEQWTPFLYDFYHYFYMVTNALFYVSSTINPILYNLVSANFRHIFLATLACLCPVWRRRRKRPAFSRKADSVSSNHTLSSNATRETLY

- IC50: 205 nM
Compound: COc1cccc(OC)c1-c1cc(C(=O)NC2(C(=O)O)C3CC4CC(C3)CC2C4)nn1-c1ccnc2cc(Cl)ccc12 (stereo not shown) [SR48692]
